Reference: patent US9382290B2, “Aptamer-modified polymeric materials for the binding of factors in a wound environment” (KCI LICENSING, INC., priority 2011, dated 2016)
Where no end group is shown, it is not given here. [ ]: non-standard residue; d: D form. AEEA = NCCOCCOCC(=O)O

Assays:
[1] = test system: VEGF; experiment: VEGF capture by P16-linker-ROCF construct, elution and ELISA; format: binding
Protocol: C1 was ROCF alone; C2 was ROCF+EMCS−P16; C3 was ROCF−EMCS+P16; C4 was silanated ROCF alone; C5=silanated ROCF+EMCS−P16; C6 was silanated ROCF−EMCS+P16; 51 was 50× Sulfo-EMCS+P16; and S2 was 100× Sulfo-EMCS+P16. W=Final subsequent PBS wash. E1=50 mM Tris, 80 mM NaCl, 250 mM Imidazole, 45 min. […] E1 (right) indicates the amount of VEGF dislodged from the foam and peptide with an […] after the last wash. […] S2 bound 584 pg/mL, whereas C4 bound 321 pg/m. S2 has the highest concentration of EMCS and therefore the most covalently bound P16. […] Data are given as mean±standard deviation.
P16 was conjugated to ROCF, incubated with VEGF, washed stringently, then eluted with an […]. In this experiment, the test group (P16-linker-foam) bound 584 pg/mL, whereas the greatest negative control bound 321 pg/mL. Non-specific binding was expected due to the hydrophobic nature of both the ROCF and the target protein VEGF.
Target sequence in this assay (P15692 207-320 limits assumed): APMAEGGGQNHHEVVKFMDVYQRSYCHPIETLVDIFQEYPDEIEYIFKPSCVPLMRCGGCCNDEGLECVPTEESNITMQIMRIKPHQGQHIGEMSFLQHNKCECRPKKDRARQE

[2] = test system: PDGF; experiment: Binding of P-16 to PDGF (statement)
[3] = test system: VEGF; experiment: Binding of P-16 to VEGF (statement)
Target sequence in this assay (P15692 207-311 limits assumed): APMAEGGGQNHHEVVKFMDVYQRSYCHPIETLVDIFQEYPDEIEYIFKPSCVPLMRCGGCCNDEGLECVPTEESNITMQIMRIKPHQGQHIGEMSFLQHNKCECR

[4] = biological target: granulocyte macrophage colony stimulating factor (GM-CSF) (Homo sapiens, UniProt P04141); experiment: GM-CSF capture by P22-modified silylated 30 PHR chitosan foam, elution and ELISA; format: binding; details: 333 ng/mL GM-CSF incubated 24 hr; unbound washed off; eluted with imidazole-based buffer E1; 30 PHR chitosan foam silylated with compound 602
Protocol: FIG. 8: Silylated with compound 602, 30 PHR Chitosan/P-22 captures more granulocyte macrophage colony stimulating factor (GM-CSF). Briefly, 333 ng/mL of GM-CSF was incubated with the samples for 24 hr. The unbound protein was washed off then the samples were eluted with an imidazole-based buffer, E1. The samples were cleaned up via buffer exchange with PBS and quantified by ELISA.
The test procedure used included the steps listed below: All buffers and reagents were prepared in advance, except the Sulfo-EMCS, which was reconstituted immediately before use. See Sulfo-EMCS Product Instructions (Thermo Scientific-Pierce), which is incorporated by reference herein in its entirety. • 1.1. BupH Borate Buffer: Two packs BupH Borate Buffer powderwere added to 1 L DI H2O as per manufacturer's instructions. • 1.2. Conjugation Buffer, BupH Borate Buffer/5 mM EDTA was prepared by dissolving 146 mg EDTA in 500 mL BupH Borate Buffer. • 1.3. Sulfo-EMCS, allowed to warm to RT, was reconstituted immediately before performing the Sulfo-EMCS addition step. […]
• 1.8. • 1.8.1. […] Use the coupons immediately for growth factor binding or transfer the moist coupons to a capped vial and store them at 4° C. until ready for use for no longer than. […] The unbound proteins were washed off then the samples were eluted with an imidazole-based buffer, E1 before a buffer exchange with PBS and quantification via ELISA.

[5] = biological target: GM-CSF (Homo sapiens, UniProt P04141); experiment: GM-CSF capture by P22-linker-ROCF construct, elution and ELISA; format: binding; details: upon elution; sample with the most capture peptide vs ROCF alone
Protocol: FIG. 11 provides elution results for the P22/GM-CSF experiment. P22 was obtained from the Bachem Americas Inc. 2010 peptide catalog. P22 is a GM-CSF antagonist that binds GM-CSF in an inhibitory manner. Briefly, 330 nmol P22 was conjugated to a polyurethane-based ROCF via Sulfo-EMCS chemistry. The P22-linker-foam construct was incubated with 1 μg GM-CSF overnight, washed five times, and subjected to stringent elutions. […] Upon elution, the sample with the most capture peptide, S3, outperformed ROCF alone by 49%. […] Samples S1-S3 all contained peptide-linker-foam with Sulfo-EMCS concentration increasing from S1 to S3 (S1=10× Sulfo-EMCS+P22; S2=25× Sulfo-EMCS+P22 and S3=50× Sulfo-EMCS+P22), C1 was ROCF alone, C2 was Silanated ROCF+EMCS−P22 and C3 was Silanated ROCF−EMCS+P22. There were no positive controls available for this experiment, as no technology has yet been proven to covalently conjugate peptides to polyurethane. However, positive controls were later developed for subsequent experiments based on experimental results. Data are given as mean±standard deviation.
With the -Sil bond, a “capture peptide” was next conjugated to the amino-functionalized ROCF. To do so, Sulfo-EMCS chemistry developed in Example 2 was used to conjugate a commercially available GM-CSF antagonist capture peptide, P22, to ROCF. […] The eluted GM-CSF was quantified via ELISA (FIG. 11). […]

Sequence of GM-CSF (P04141 18-144, species assumed): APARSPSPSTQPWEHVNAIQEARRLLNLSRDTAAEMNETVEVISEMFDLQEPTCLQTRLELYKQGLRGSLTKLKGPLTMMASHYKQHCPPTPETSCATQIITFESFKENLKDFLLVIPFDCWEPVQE
Sequence of granulocyte macrophage colony stimulating factor (GM-CSF) (P04141 18-144, species assumed): as above

Substance | VEGF bound (elution E1, ELISA) ([1]; P16 conjugated to silanated ROCF via Sulfo-EMCS, incubated with VEGF, washed, E1 = 50 mM Tris, 80 mM NaCl, 250 mM Imidazole, 45 min) [pg/mL] | more VEGF bound than greatest negative control (silanated ROCF, C4) ([1]; elution data) [%] | binding to PDGF [2] | binding to VEGF [3] | GM-CSF captured (eluted, quantified by ELISA) [4] [pg/mL] | more GM-CSF captured than ROCF alone [5] [%]
GHQGQHIGQMS-AEEAc-Cys-NH2 (GHQGQHIGQMS[AEEA]C-NH2; N-terminus assumed; SMILES CC[C@H](C)[C@H](NC(=O)[C@H](Cc1c[nH]cn1)NC(=O)[C@H](CCC(N)=O)NC(=O)CNC(=O)[C@H](CCC(N)=O)NC(=O)[C@H](Cc1c[nH]cn1)NC(=O)CN)C(=O)NCC(=O)N[C@@H](CCC(N)=O)C(=O)N[C@@H](CCSC)C(=O)N[C@@H](CO)C(=O)NCCOCCOCC(=O)N[C@@H](CS)C(N)=O; listed as Homo sapiens) [P16, Anti-VEGF peptide designed de novo] | 584 | 82 | shown to bind | shown to bind | – | –
NAIQEARRLLNLSRD (listed as Homo sapiens) [P22, Commercially available anti-GM-CSF peptide (Bachem), GM-CSF antagonist] | – | – | – | – | 299 | 49
